Measured values taken from patent US7838676B2, “Beta-secretase modulators and methods of use” (Amgen Inc., priority 2005, dated 2010).

What follows are molecules tested on Aβ40 in conditioned medium of APP containing cells (assay: BACE Cell-Based Assay (Aβ40 sandwich ELISA, HEK-293 cells stably expressing APP)). Conditions: Homo sapiens, HEK293, inhibition of Aβ 40 in conditioned media after 24 h.
Protocol: The cell-based assay measures inhibition or reduction of Aβ40 in conditioned medium of test compound treated APP containing cells.
Cells stably expressing Amyloid Precursor Protein (APP) were plated at a density of 40K cells/well in 96 well plates (Costar). The cells were cultivated for 24 h at 37° C. and 5% CO2 in DMEM supplemented with 10% FBS. The test compounds were then added to cells in 10-point dose response concentrations with the starting concentration being either 100 μM or 10 μM. The compounds were diluted from stock solutions in DMSO and the final DMSO concentration of the test compounds on cells was 0.1%. After 24 h of incubation with the test compounds the supernatant conditioned media was collected and the Aβ 40 levels were determined using a sandwich ELISA. The IC50 of the compound was calculated from the percent of control or percent inhibition of Aβ 40 as a function of the concentration of the test compound.
The sandwich ELISA to detect Aβ 40 was performed in 96 well microtiter plates, which were pre-treated with goat anti-rabbit IgG (Pierce). The capture and detecting antibody pair that were used to detect Aβ 40 from cell supernatants were affinity purified pAb40 (Biosource) and biotinylated 6E10 (Signet Labs Inc.), respectively. The optimal concentration for the pAb40 antibody was 3 μg/ml in Superblock/TBS (Pierce) that was supplemented with 0.05% Tween 20 (Sigma). Optimal concentration for the detection antibody 6E10-biotinylated was 0.5 μg/ml in Superblock/TBS (Pierce) that had been supplemented with 2% normal goat serum and 2% normal mouse serum.
Cellular supernatants were incubated with the capture antibody for 3 h at 4° C., followed by 3 wash steps in TBS-tween (0.05%). The detecting antibody incubation was for 2 h at 4° C., again followed by the wash steps as described previously. The final readout of the ELISA is Time-Resolved Fluorescence (counts per minute) using Delfia reagents Streptavidin-Europium and Enhancement solutions (Perkin Elmer) and the Victor 2 multilabel counter (Perkin Elmer).

| IC50 [µM] | Compound |
| --- | --- |
| ≤ 5 | CCc1ccc2c(c1)[C@@H](NC[C@@H](O)[C@H](Cc1ccccc1)NC(=O)c1ccnc(N3CCCCC3)c1)CC1(CCCC1)O2 [Example 167, N-((2S,3R)-4-((S)-6-ethyl-2,2-spirocyclopentylchroman-4-ylamino)-3-hydroxy-1-phenylbutan-2-yl)-2-(piperidin-1-yl)isonicotinamide] |
| ≤ 5 | CCc1ccc2c(c1)[C@@H](NC[C@@H](O)[C@H](Cc1ccccc1)NC(=O)c1ccnc(N3CCOCC3)c1)CC1(CCCC1)O2 [Example 169, N-((2S,3R)-4-((S)-6-ethyl-2,2-spirocyclopentylchroman-4-ylamino)-3-hydroxy-1-phenylbutan-2-yl)-2-morpholinoisonicotinamide] |

The next lines start with the molecule.

| Compound | IC50 [µM] |
| --- | --- |
| CCc1ccc2c(c1)[C@@H](NC[C@@H](O)[C@H](Cc1ccccc1)NC(=O)c1cncnc1)CC1(CCC1)O2 [Example 19, N-((2S,3R)-4-((S)-6-ethyl-2,2-spirocyclobutylchroman-4-ylamino)-3-hydroxy-1-phenylbutan-2-yl)pyrimidine-5-carboxamide] | ≤ 5 |
| CCc1ccc2c(c1)[C@@H](NC[C@@H](O)[C@H](Cc1ccccc1)NC(=O)c1cc(N3CCCC3=O)ccc1OC)CC1(CCCC1)O2 [Example 30, N-((2S,3R)-4-((S)-6-ethyl-2,2-spirocyclopentylchroman-4-ylamino)-3-hydroxy-1-phenylbutan-2-yl)-2-methoxy-5-(2-oxopyrrolidin-1-yl)benzamide] | ≤ 5 |
| CCc1ccc2c(c1)[C@@H](NC[C@@H](O)[C@H](Cc1ccccc1)NC(=O)c1cccc(-c3ccccn3)c1)CC1(CCCC1)O2 [Example 106] | ≤ 5 |
| Cc1cnc2c(c1)[C@@H](NC[C@@H](O)[C@H](Cc1cc(F)cc(F)c1)NC(=O)c1ccc(N3CCCC3=O)c(F)c1)CC1(CCC1)C2 [Example 146, N-((1S,2R)-1-((3,5-difluorophenyl)methyl)-2-hydroxy-3-(((5′S)-3′-methyl-5′,8′-dihydro-6′H-spiro[cyclobutane-1,7′-quinolin]-5′-yl)amino)propyl)-3-fluoro-4-(2-oxo-1-pyrrolidinyl)benzamide] | ≤ 5 |
| O=C(N[C@@H](Cc1ccccc1)[C@H](O)CN[C@H]1CC2(CCC2)Oc2ccc(Br)cc21)c1ccno1 [Example 162, N-((1S,2R)-3-(((4S)-6-bromo-3,4-dihydrospiro[chromene-2,1′-cyclobutan]-4-yl)amino)-2-hydroxy-1-(phenylmethyl)propyl)-5-isoxazolecarboxamide] | ≤ 5 |
